Tests used:
UGT1A9 [1] = molecular target: T1, UGT1A9 (Homo sapiens, UniProt O60656); assay: Effect of Ko143 and MK571 on fraxetin-O-glucuronidation activity of UGT1A9; conditions: Ko143 20 μM
T1 sequence (O60656 26-530): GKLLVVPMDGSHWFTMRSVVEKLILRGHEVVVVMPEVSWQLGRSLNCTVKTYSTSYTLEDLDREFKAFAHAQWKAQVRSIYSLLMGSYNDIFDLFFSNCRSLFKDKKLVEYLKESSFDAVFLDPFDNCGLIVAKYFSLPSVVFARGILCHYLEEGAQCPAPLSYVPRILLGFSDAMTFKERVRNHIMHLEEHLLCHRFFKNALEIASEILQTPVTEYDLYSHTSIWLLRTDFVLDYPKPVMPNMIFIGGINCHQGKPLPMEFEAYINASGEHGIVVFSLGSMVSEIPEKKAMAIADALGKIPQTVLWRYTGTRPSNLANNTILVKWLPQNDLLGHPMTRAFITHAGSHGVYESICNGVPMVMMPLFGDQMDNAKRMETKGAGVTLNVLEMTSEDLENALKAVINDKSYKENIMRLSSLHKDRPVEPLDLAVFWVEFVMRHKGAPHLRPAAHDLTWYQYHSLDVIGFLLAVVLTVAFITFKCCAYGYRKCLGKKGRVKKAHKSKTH
Method: (§1) The incubation system was slightly modified on the basis of a previously published article ([Qin et al., 2018a]). […] After preincubation at 37°C for 5 min, UDPGA (3.5 mM) was added to the reaction system, and the mixture was incubated for another 30 min. These reactions were terminated by the addition of an equal volume of ice-cold acetonitrile. The mixed samples were centrifuged at 13800 × g for 10 min, and the supernatant was analyzed by ultra-high-performance liquid chromatography (UHPLC). All the experiments were conducted in triplicate.
(§2) Other detailed operations were the same as described above.

HeLa1A9 cell lysate = molecular target: T2, HeLa1A9 cell lysate (Homo sapiens, UniProt O60656); assay: Effect of Ko143 and MK571 on fraxetin-O-glucuronidation activity of HeLa1A9 cell lysate; format: biochemical; conditions: Ko143 20 μM
T2 sequence (O60656 26-530): T1 sequence (O60656 26-530)
Method: as §1, §2

UGT1A9 [2] = molecular target: T1, UGT1A9; assay: Inhibition of fraxetin-O-glucuronide formation by selective UGT1A9 inhibitors; format: biochemical; parameters: purchased Corning Biosciences; conditions: fraxetin 4 and 20 μM; magnolol 1 μM, niflumic acid 10 μM, androsterone 10 μM
Method: as §1, §2

HeLa1A9 cells = assay: Glucuronide excretion experiments in HeLa1A9 cells; format: cell-based, human; conditions: fraxetin 5, 10 and 20 μM; HeLa1A9 cells
Method: The HeLa1A9 cells were pretreated and incubated with fraxetin solutions as reported previously ([Jiang et al., 2011]). Before assays, the HeLa1A9 cells were washed twice with prewarmed (37°C) Hank’s balanced salt solution (HBSS; pH = 7.4). […] At each time point (30, 60, 90, and 120 min), 200 μL of the culture supernatant from each well was collected as samples, and an equal volume of a loading media was used to replenish each well. Next, the collected samples were each mixed with 100 μL ice-cold acetonitrile. The supernatants were subjected to UHPLC analysis after centrifugation (10 min at 13800 × g).
(§3) In addition, the excretion rate of intracellular glucuronides was calculated using Equ. 2. Fraction metabolized or the fmet value was defined as the fraction of a dose metabolized based on Equ. 3. The fmet value was regarded as the more appropriate parameter to reflect the extent of drug metabolism in intact cells in the presence of a transporter–enzyme interplay.
(§4) (2) Excretion rate=VdC(excretedglucuronide)/dt
(§5) where V is the volume of the incubation medium, C is the excreted cumulative concentration of glucuronides, and t denotes the incubation time. Here, dC(excreted glucuronide)/dt describes the changes in glucuronide levels with time.

MRP3 = molecular target: T3, MRP3 (Homo sapiens, UniProt O15438); assay: shRNA-mediated partial silencing of MRP3 in HeLa1A9 cells, glucuronide excretion; format: cell-based; conditions: fraxetin 10 μM
T3 construct: BCRP, MRP1, MRP3, and MRP4 were detected in both wild-type HeLa and HeLa1A9 cells; endogenous in cells
Method: (§6) The HeLa1A9 cells were pretreated and incubated with fraxetin solutions as reported previously ([Jiang et al., 2011]). Before assays, the HeLa1A9 cells were washed twice with prewarmed (37°C) Hank’s balanced salt solution (HBSS; pH = 7.4). After that, fraxetin (10 μM) dissolved in 2 mL of HBSS was incubated with the HeLa1A9 cells. At each time point (30, 60, 90, and 120 min), 200 μL of the culture supernatant from each well was collected as samples, and an equal volume of a loading media was used to replenish each well. Next, the collected samples were each mixed with 100 μL ice-cold acetonitrile. The supernatants were subjected to UHPLC analysis after centrifugation (10 min at 13800 × g).
(§7) In glucuronide excretion assays, biological inhibition mainly including shRNA-mediated partial silencing of BCRP and MRPs in HeLa cells was usually performed to evaluate the role of each efflux transporter ([Quan et al., 2015]; [Sun et al., 2015]; [Qin et al., 2018a]). Established shRNA_BCRP, shRNA_MRP1, shRNA_MRP3, and shRNA_MRP4 plasmids were […] transfected into HeLa1A9 cells to develop the stably shRNA-transfected cell lines, named HeLa1A9-BCRP-shRNA cells, HeLa1A9-MRP1-shRNA, HeLa1A9-MRP3-shRNA, and HeLa1A9-MRP4-shRNA cells, respectively. After transfection for 2 days, these engineered HeLa1A9 cells were subjected to fraxetin-O-glucuronide excretion experiments. The control scrambled shRNA served as a negative control.
as §3, §4
(§8) (3) fmet=excreted glucuronide+intracellular glucuronide/dosed aglycone
as §5

MRP4 = molecular target: T4, MRP4 (Homo sapiens, UniProt O15439); assay: shRNA-mediated partial silencing of MRP4 in HeLa1A9 cells, glucuronide excretion; format: cell-based; conditions: fraxetin 10 μM
T4 construct: BCRP, MRP1, MRP3, and MRP4 were detected in both wild-type HeLa and HeLa1A9 cells; endogenous in cells
T4 sequence (O15439 1-1325): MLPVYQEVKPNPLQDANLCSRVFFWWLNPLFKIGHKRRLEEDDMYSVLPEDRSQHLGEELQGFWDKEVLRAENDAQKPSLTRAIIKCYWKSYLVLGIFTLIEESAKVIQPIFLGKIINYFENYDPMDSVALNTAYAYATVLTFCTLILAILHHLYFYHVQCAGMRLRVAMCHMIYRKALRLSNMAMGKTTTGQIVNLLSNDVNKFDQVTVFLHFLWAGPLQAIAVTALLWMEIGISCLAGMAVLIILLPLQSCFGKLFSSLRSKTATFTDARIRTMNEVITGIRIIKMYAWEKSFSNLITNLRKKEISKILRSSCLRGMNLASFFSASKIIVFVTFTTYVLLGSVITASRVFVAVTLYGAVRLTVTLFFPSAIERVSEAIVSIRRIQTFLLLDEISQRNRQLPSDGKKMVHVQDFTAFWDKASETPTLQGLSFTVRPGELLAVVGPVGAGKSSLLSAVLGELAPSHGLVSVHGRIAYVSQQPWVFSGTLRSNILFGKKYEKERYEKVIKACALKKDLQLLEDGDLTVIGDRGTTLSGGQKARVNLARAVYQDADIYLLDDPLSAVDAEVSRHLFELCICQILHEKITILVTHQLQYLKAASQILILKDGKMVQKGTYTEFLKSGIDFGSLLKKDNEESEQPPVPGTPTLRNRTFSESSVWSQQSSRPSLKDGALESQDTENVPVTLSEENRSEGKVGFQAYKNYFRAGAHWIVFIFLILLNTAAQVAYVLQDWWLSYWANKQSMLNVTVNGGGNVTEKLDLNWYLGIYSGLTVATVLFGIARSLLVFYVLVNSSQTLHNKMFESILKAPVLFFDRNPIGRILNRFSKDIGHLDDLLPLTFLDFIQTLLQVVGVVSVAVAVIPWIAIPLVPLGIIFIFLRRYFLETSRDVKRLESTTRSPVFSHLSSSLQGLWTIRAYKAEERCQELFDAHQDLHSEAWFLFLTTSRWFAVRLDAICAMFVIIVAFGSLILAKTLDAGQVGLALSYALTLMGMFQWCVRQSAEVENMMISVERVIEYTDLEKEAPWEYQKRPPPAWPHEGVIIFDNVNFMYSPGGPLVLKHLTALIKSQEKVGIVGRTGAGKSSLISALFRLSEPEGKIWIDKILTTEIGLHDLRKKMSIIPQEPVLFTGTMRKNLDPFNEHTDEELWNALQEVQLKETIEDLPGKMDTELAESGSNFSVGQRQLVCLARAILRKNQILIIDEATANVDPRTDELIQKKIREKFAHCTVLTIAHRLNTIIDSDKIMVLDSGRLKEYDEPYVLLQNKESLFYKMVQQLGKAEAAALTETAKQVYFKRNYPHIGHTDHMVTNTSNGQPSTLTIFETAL
Method: as §6, §7, §3, §4, §8, §5

UGT1A9 [3] = molecular target: T1, UGT1A9
Method: as §1
The enzyme kinetic parameters were obtained by fitting appropriate kinetic models to the experimental data in GraphPad Prism V5 software (San Diego, CA, United States). The best model was selected based on visual inspection of the Eadie–Hofstee plots ([Qin et al., 2018b]). In brief, if the Eadie–Hofstee plot was linear, formation rates (V) of glucuronides at different substrate concentrations (C) were fitted to the standard equations (1): […]
Where Km is the Michaelis–Menten constant, and Vmax is the maximum rate of glucuronidation. The intrinsic clearance (CLint) was computed as Vmax/Km.

T3 sequence (O15438 whole entry): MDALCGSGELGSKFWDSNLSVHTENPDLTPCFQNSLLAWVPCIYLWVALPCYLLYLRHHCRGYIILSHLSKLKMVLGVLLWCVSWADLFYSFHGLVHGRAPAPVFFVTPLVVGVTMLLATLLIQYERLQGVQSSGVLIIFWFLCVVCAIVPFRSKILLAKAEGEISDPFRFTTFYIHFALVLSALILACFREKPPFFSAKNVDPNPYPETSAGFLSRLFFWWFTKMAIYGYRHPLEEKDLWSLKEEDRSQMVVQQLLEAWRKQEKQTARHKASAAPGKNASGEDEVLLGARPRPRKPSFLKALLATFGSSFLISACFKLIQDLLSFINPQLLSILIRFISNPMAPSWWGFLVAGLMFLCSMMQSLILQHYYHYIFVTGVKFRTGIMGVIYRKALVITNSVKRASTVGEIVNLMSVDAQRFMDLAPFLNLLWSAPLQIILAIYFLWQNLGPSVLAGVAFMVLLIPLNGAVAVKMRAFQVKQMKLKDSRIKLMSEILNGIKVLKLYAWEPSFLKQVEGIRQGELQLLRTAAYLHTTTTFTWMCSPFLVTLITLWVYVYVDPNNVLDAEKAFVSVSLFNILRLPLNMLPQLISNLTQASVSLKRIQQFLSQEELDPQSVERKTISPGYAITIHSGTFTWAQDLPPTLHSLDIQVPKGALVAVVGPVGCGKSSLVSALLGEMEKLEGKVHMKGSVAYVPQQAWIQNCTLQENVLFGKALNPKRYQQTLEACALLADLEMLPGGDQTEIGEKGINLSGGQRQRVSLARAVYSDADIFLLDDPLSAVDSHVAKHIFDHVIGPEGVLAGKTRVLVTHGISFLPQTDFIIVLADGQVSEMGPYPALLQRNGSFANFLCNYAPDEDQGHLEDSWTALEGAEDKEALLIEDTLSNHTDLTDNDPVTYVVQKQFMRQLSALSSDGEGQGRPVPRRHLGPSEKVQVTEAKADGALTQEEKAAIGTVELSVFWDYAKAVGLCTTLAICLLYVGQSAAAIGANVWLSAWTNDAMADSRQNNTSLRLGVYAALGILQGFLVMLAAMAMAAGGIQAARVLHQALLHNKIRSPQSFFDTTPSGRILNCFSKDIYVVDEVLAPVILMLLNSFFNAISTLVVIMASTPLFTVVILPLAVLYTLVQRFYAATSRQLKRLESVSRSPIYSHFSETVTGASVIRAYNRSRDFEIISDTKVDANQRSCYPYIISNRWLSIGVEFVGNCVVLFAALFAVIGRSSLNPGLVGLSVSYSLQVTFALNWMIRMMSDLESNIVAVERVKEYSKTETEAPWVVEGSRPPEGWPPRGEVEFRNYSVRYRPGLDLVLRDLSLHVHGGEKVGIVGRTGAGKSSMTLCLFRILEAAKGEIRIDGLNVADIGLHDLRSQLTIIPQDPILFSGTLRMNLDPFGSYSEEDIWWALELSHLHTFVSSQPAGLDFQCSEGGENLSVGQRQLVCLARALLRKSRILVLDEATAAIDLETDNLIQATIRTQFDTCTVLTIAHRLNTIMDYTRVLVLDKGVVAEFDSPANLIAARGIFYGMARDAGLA

## COc1ccc2c3c([nH]c2c1)[C@H](CC(C)C)N1C(=O)[C@H](CCC(=O)OC(C)(C)C)NC(=O)[C@@H]1C3 [Ko143]
UGT1A9 [1]
  inhibition of fraxetin-O-glucuronidation, G1: 41.5%
  inhibition of fraxetin-O-glucuronidation, G2: 24.9%
HeLa1A9 cell lysate
  inhibition of fraxetin-O-glucuronidation, G1: 20.4%
  inhibition of fraxetin-O-glucuronidation, G2: 29.3%

## O=C(O)c1cccnc1Nc1cccc(C(F)(F)F)c1 [niflumic acid]
UGT1A9 [2]
  effect on formation of G1 and G2: significantly inhibited

## C=CCc1ccc(O)c(-c2cc(CC=C)ccc2O)c1 [magnolol]
UGT1A9 [2]
  effect on formation of G1 and G2: significantly inhibited

## COc1cc2ccc(=O)oc2c(O)c1O[C@@H]1O[C@H](C(=O)O)[C@@H](O)[C@H](O)[C@H]1O [G2, fraxetin-7-O-glucuronide]
HeLa1A9 cells
  excretion with elevation of the fraxetin concentration: markedly increased
MRP3; MRP3 knockdown
  decrease in fraction metabolized (fmet; overall cellular glucuronidation): 18.6%
  reduction in excretion rate: 21.1%
MRP3; MRP3 knockdown, HeLa1A9 cells
  reduction in excreted glucuronide: 15.1–31.9%
MRP3; MRP3 silencing
  elevation of intracellular glucuronide level: 45.4%
MRP4
  decrease in fraction metabolized (fmet): 23.1%
  elevation of intracellular glucuronide: 52.4%
  reduction in excretion rate: 32.3%
MRP4; HeLa1A9 cells
  decreased excretion of glucuronide: 33.0–42.4%
UGT1A9 [3]
  Km: 8 to 16 µM

From publication PMC6515931, “The Efflux Mechanism of Fraxetin-O-Glucuronides in UGT1A9-Transfected HeLa Cells: Identification of Multidrug Resistance-Associated Proteins 3 and 4 (MRP3/4) as the Important Contributors” (Frontiers in Pharmacology, 2019)
